Results published in ChEMBL document CHEMBL1143344, “Novel DNA-directed alkylating agents: design, synthesis and potent antitumor effect of phenyl N-mustard-9-anilinoacridine conjugates via a carbamate or carbonate linker” (Bioorg Med Chem, 2009).
Activity calls are given as the source filed them. The calls are words filed in the database; no cut-off is given here.

Legend:
MX1 [1] = assay: Cytotoxicity against human MX1 cells after 72 hrs by SRB assay; format: functional, cell-based; conditions: MX1, 72 h
CCRF-CEM [2] = assay: Ratio of IC50 for taxol-resistant human CCRF-CEM cells to IC50 for human CCRF-CEM cells; format: functional
CCRF-CEM [3] = assay: Cytotoxicity against taxol-resistant human CCRF-CEM cells after 72 hrs by XTT assay; format: functional, cell-based
CCRF-CEM [4] = assay: Ratio of IC50 for vinblastine-resistant human CCRF-CEM cells to IC50 for human CCRF-CEM cells; format: functional
CCRF-CEM [5] = assay: Cytotoxicity against vinblastine-resistant human CCRF-CEM cells after 72 hrs by XTT assay; format: functional, cell-based
H1299 [6] = assay: Induction of DNA interstrand cross-linking in 20 Gy irradiated human H1299 cells at 200 uM after 1 hr by comet assay; format: cell-based
[7] = Cytotoxicity against human H1299 cells after 72 hrs by WST1 assay; format: functional, cell-based; conditions: NCI-H1299, 72 h
PC-3 = assay: Cytotoxicity against human PC3 cells after 72 hrs by WST1 assay; format: functional, cell-based; conditions: PC-3, 72 h
H1299 [8] = assay: Induction of DNA interstrand cross-linking in 20 Gy irradiated human H1299 cells after 1 hr by comet assay; format: cell-based
[9] = Cytotoxicity against human CL1-5 cells after 72 hrs by WST1 assay; format: functional, cell-based; conditions: CL1-5, 72 h
H1299 [10] = assay: Induction of DNA interstrand cross-linking in 20 Gy irradiated human H1299 cells at 10 uM after 1 hr by comet assay; format: cell-based
CCRF-CEM [11] = assay: Cytotoxicity against human CCRF-CEM cells after 72 hrs by XTT assay; format: functional, cell-based
H1299 [12] = assay: Induction of DNA interstrand cross-linking in 20 Gy irradiated human H1299 cells assessed as decrease in DNA migration after 1 hr by comet assay; format: cell-based
MCF7 = assay: Cytotoxicity against human MCF7 cells after 72 hrs by WST1 assay; format: functional, cell-based; conditions: MCF7, 72 h
HCT-116 [13] = assay: Antitumor activity against human HCT116 cells xenografted in athymic nude mouse assessed as tumor growth inhibition at 50 mg/kg, iv administered q2d for 7 days; format: functional; set-up: scale not given: the % may be the effect or the level left
[14] = Stability in rat plasma assessed as half life at 5 ug/ml after 10 mins by HPLC; format: ADME, cell-free
[15] = Cytotoxicity against human CL1-0 cells after 72 hrs by WST1 assay; format: functional, cell-based; conditions: CL1-0, 72 h
HCT-116 [16] = assay: Cytotoxicity against human HCT116 cells after 72 hrs by SRB assay; format: functional, cell-based; conditions: HCT-116, 72 h
Mus musculus = assay: Toxicity in athymic nude mouse xenografted with human HCT116 cells assessed as body weight loss at 50 mg/kg, iv administered q2d for 7 days; format: organism-based, HCT-116; set-up: dose 50 mg/kg, route intravenous; conditions: in vivo, 168 h
MX1 [17] = assay: Antitumor activity against human MX1 cells xenografted in athymic nude mouse assessed as total tumor remission at 50 mg/kg, iv administered q2d for 5 days measured after 20 days; format: functional, organism-based; set-up: dose 50 mg/kg
MX1 [18] = assay: Antitumor activity against human MX1 cells xenografted in athymic nude mouse assessed as no tumor relapse at 50 mg/kg, iv administered q2d for 5 days measured after 129 days; format: functional, organism-based; set-up: dose 50 mg/kg
MX1 [19] = assay: Antitumor activity against human MX1 cells xenografted in athymic nude mouse assessed as total tumor remission at 50 mg/kg, iv administered q2d for 5 days measured after 12 days; format: functional, organism-based; set-up: dose 50 mg/kg
MX1 [20] = assay: Antitumor activity against human MX1 cells xenografted in athymic nude mouse assessed as total tumor remission at 10 mg/kg, iv administered q2d for 3 days measured after 20 days; format: functional, organism-based; set-up: dose 10 mg/kg
MX1 [21] = assay: Antitumor activity against human MX1 cells xenografted in athymic nude mouse assessed as total tumor remission at 10 mg/kg, iv administered q2d for 3 days measured after 16 days; format: functional, organism-based; set-up: dose 10 mg/kg
MX1 [22] = assay: Antitumor activity against human MX1 cells xenografted in athymic nude mouse assessed as total tumor remission at 10 mg/kg, iv administered q2d for 3 days measured after 18 days; format: functional, organism-based; set-up: dose 10 mg/kg
MX1 [23] = assay: Antitumor activity against human MX1 cells xenografted in athymic nude mouse assessed as total tumor remission at 40 mg/kg, iv administered q2d for 5 days measured after 20 days; format: functional, organism-based; set-up: dose 40 mg/kg

Compound | IC50 (MX1 [1]) [nM] | Ratio IC50 (CCRF-CEM [2]) | IC50 (CCRF-CEM [3]) [nM] | Ratio IC50 (CCRF-CEM [4]) | IC50 (CCRF-CEM [5]) [nM] | IC50 [7] [nM] | IC50 (PC-3) [nM] | IC50 [9] [nM] | IC50 (CCRF-CEM [11]; read-out: IC50) [nM] | IC50 (MCF7) [nM] | IC50 [15] [nM] | IC50 (HCT-116 [16]) [nM] | also measured
Nc1cc(CO)cc(Nc2c3ccccc3nc3ccccc23)c1 | 3.5 | 0.8 | 600 | 2.7 | 1600 |  |  |  |  |  |  |  | 
O=C(Nc1cc(CO)cc(Nc2c3ccccc3nc3ccccc23)c1)Oc1ccc(N(CCCl)CCCl)cc1 | 99 | 1.9 | 140 | 2.5 | 184 | 284 | 1610 | 5060 | 75 | 4800 | 2700 | 568 | Activity (H1299 [6]): 39.7%; Activity (H1299 [8]): Dose-dependent effect; Activity (H1299 [10]): 74.2%; Activity (H1299 [12]): Dose-dependent effect; Activity (HCT-116 [13]): 98%; half-life at 5 ug/ml [14]: 6.41 h; Activity (Mus musculus): 8%; Activity (MX1 [17]): Active; Activity (MX1 [18]): Active; Activity (MX1 [19]): Active
Cc1c(NC(=O)Oc2ccc(N(CCCl)CCCl)cc2)cccc1Nc1c2ccccc2nc2c(C)cccc12 | 181 | 1.09 | 174 | 0.89 | 142 |  |  |  | 160 |  |  | 320 | 
COc1ccc(Nc2c3ccccc3nc3ccccc23)cc1NC(=O)Oc1ccc(N(CCCl)CCCl)cc1 | 181 | 1.9 | 160 | 1.4 | 119 |  |  |  | 85 |  |  | 186 | 
CCOC(=O)Nc1cc(COC(=O)Oc2ccc(N(CCCl)CCCl)cc2)cc(Nc2c3ccccc3nc3ccccc23)c1 | 89 | 1.6 | 509 | 1.5 | 482 | 527 | 23300 | 4560 | 315 | 19800 | 410 | 639 | Activity (MX1 [20]): Active; Activity (MX1 [21]): Active; Activity (MX1 [22]): Active
CC(=O)O[C@H]1C(=O)[C@@]2(C)[C@H]([C@H](OC(=O)c3ccccc3)[C@]3(O)C[C@H](OC(=O)[C@H](O)[C@@H](NC(=O)c4ccccc4)c4ccccc4)C(C)=C1C3(C)C)[C@]1(OC(C)=O)CO[C@@H]1C[C@@H]2O [PACLITAXEL] | 46 | 330 | 429 | 980 | 1270 |  |  |  |  |  |  | 1.1 | IC50 (CCRF-CEM [11]): 3.1 nM
Cc1cccc2c(Nc3cc(COC(=O)Nc4ccc(N(CCCl)CCCl)cc4)cc(NC(=O)OC(C)(C)C)c3)c3ccccc3nc12 | 5930 | 4.5 | 3360 | 1.9 | 1420 |  |  |  | 750 |  |  | 2400 | 
OCc1cc(Nc2c3ccccc3nc3ccccc23)cc(OCCN(CCCl)CCCl)c1 | 3.5 | 1.1 | 7.5 | 4.9 | 34 |  |  |  |  |  |  |  | 
Cc1cccc2c(Nc3cc(CO)cc(NC(=O)Oc4ccc(N(CCCl)CCCl)cc4)c3)c3ccccc3nc12 | 84 | 1.4 | 97 | 1.9 | 127 | 457 | 5980 | 12600 | 67 | 9010 | 1870 | 438 | Activity (MX1 [23]): Active
COc1ccc(NC(=O)Oc2ccc(N(CCCl)CCCl)cc2)cc1Nc1c2ccccc2nc2ccccc12 | 1560 | 1.08 | 583 |  | 254 |  |  |  | 541 |  |  | 709 | 
